Here are results for two compounds from US5565433A, “Sulfated β-glycolipid derivatives as cell adhesion inhibitors” (Bristol-Myers Squibb Company, priority 1996, dated 1996).

Structures are written as SMILES.

One test deals with T1, P-selectin (Homo sapiens, UniProt P16109).
T1 construct: consists of the human lectin domain, the EGF domain, and two complement repeats of the human selectins; made in house
In words: HL-60 Cell Binding to P-selectin Rg. It counts as cell-based. The note with it: HL-60 cells binding to P-selectin Rg coated wells. As to the method: 2. HL-60 Cell Binding to P- and E-Selectin RG
Receptor globulin (Rg) Construction
The chimeric P-and E-selectin receptor globulin (Rg) consists of the human lectin domain, the EGF domain, and two complement repeats of the human selectins fused to the hinge, CH1 and CH2 domains of human IgG1. These proteins were prepared as described by Aruffo, et al., Cell (1991) 67: 35-44; Walz, et al., Science (1990) 250, 1132-1135.
Cell binding assay for Rg
The HL-60 cell line, obtained from the American Type Culture Collection, ATCC No. CCL240, was employed to investigate P-selectin Rg binding. Assays were done in 96-well tissue culture dishes. The wells were first coated with 0.5 ug goat anti-human Fc antiserum overnight, and nonspecific binding sites were blocked by incubation of the wells with 1% nonfat dry milk in phosphate buffered saline (PBS containing 0.9 mM CaCl2 and 0.8 mM MgSO4) for 30 minutes. The Rg was then bound to the anti Fc-coated wells by incubating 50 ng in 50 ul of PBS for two hours. Cells, washed twice and resuspended in PBS to remove traces of medium components, were labeled with 10 uM calcein acetoxy methyl ester for 30 minutes at 3×10^7 cells per ml at room temperature. Serum-containing medium (RPMI with 20% fetal calf serum) was added, and the cells washed, followed by resuspension in PBS and a further spin. The labeled cells, resuspended in PBS, were added to twice washed Rg-containing wells at 200,000 per well. Following a 30 minute incubation with slow shaking, the wells were aspirated and washed three times with PBS to remove unbound cells. To certain wells were added known numbers of cells for determination of a standard curve of fluorescent units per cell. The fluorescence on the plate was quantitated using a fluorescent plate reader. Following subtraction of a blank representing the binding of cells to non-Rg containing wells (<5000 cells), the specific binding to P- or E- selectin was determined.
Inhibitors of cell binding
Test compounds were prepared by dissolution to a final concentration of 20 mg/ml in dimethyl sulfoxide (DMSO), diluted in PBS to 2 mg/ml, and briefly sonicated prior to use. The Rg coated wells were preincubated at room temperature for 15 minutes with the inhibitor, and 200,000 cells were added to yield the final indicated inhibitor concentration in 160 ul of PBS. The data is obtained as percent inhibition of specific binding: [formula] and a plot of dose vs. percent inhibition of Rg binding is generated in which IC50 (μM) is calculated and reported in Table 1.

Test [1] concerns Reverse Passive Arthus Reaction in Rats. In words: Reverse Passive Arthus Reaction in Rats, myeloperoxidase (MPO). It counts as in vivo. Conditions: rat, IV, % inhibition at 3 mg single dose, 4 hours. An excerpt:
3. Reverse Passive Arthus Reaction in Rats
The reverse passive Arthus reaction in rats is a modification of the method by Mulligan et al., as described in J. Clin. Invest., (1991 ) 88:1396-1406. This is an experimental model in which the interaction of antigen-antibody complexes and complement leads to a severe vasculitis that is associated with edema, induration, erythema and hemorrhage. The interaction between the antigen-antibody complexes and complement leads to a localized influx of neutrophils. These neutrophils release a variety of mediators that are associated with tissue damage and vascular permeability. The localized inflammatory reaction is measured using different techniques i.e., vascular permeability and neutrophil influx which is evaluated both biochemically and microscopically.
Male Sprague Dawley specific pathogen-free rats with jugular vein cannulae (280-320 g, Hill Top Labs, Pa.) are used in these studies. Animals are acclimated for at least 1 day and individually housed in stainless steel cages. The dorsal region of the rats is closely clipped 2 days prior to the experiments and divided into 4 sites on each side of the midline. Prior to all injections the rats are sedated with 0.4 ml per 300 gm rat of ketamine/rompun [1000 mg (10 ml) of ketamine HCL is mixed with 40 mg (2.0 ml) Rompun] administered IP and or inhalation anesthesia with metafane (methoxyflurane).
Bovin Serum Albumin (BSA) and rabbit polyclonal IgG rich in anti-BSA are purchased from Sigma Chemical Co. (St. Louis, Mo.). Radiolabelled ^125 I-BSA (spAct 1-5 μCi/μg) is purchased from Dupont NEN (Boston, Mass.).
Each rat is administered intradermal (ID) injection of (0.4 mg, 0.6 mg and 0.8 mg) anti-BSA in a volume of 100 μl per injection in normal saline. The ID injections are randomized near the mid dorsal region on both sides of the back bone. Immediately after the ID injections of the anti-BSA, the rats are administered intravenous (IV) injections of BSA (10 mg in 1.0 ml) in normal saline containing ^125 I labeled BSA (1 μCi/ml BSA or 5.0 μCi/kg body wt) for quantification of dermal vascular injury. Anti-inflammatory agents such as inhibitors of adhesion molecules of the present invention are administered IV at a single dose of 3 mg immediately after BSA. Four (4) hours after the IV injection of BSA, the rats are anesthetized with metafane and 2 to 3 ml of blood is withdrawn via the cannula into an anticoagulant containing (EDTA or Heparin) tube and plasma separated and saved for neutrophil and albumin quantitation. The rats are killed and the skin surrounding the injection site (15 mm diameter) is punched out and weighed. The skin samples and a fixed volume of plasma (0.1 to 1.0 ml) is analyzed in a gamma-counter for ^125 I content. Skin samples from the contralateral side are processed and analyzed for myeloperoxidase activity (MPO) as a measure of neutrophil accumulation. As needed, samples are also processed for histological evaluation of the reacted sites.
MPO is located in the azurephil granules of polymorphonuclear leukocytes (PMN). Because of its abundance in these cells (5% dry weight), this enzyme is used as a marker for tissue neutrophil content. For tissue MPO content, the method of Bradley, et al., was used as described in J. Invest. […] Change in absorbance at 450 nm was measured at room temperature using a Vmax kinetic plate reader (Molecular Devices, Pale Alto, Calif., USA). Percent inhibition of the test compound at 3 mg dose was determined as follows: [formula] […]

T1 sequence (P16109 with tags, fused parts or gaps limits assumed): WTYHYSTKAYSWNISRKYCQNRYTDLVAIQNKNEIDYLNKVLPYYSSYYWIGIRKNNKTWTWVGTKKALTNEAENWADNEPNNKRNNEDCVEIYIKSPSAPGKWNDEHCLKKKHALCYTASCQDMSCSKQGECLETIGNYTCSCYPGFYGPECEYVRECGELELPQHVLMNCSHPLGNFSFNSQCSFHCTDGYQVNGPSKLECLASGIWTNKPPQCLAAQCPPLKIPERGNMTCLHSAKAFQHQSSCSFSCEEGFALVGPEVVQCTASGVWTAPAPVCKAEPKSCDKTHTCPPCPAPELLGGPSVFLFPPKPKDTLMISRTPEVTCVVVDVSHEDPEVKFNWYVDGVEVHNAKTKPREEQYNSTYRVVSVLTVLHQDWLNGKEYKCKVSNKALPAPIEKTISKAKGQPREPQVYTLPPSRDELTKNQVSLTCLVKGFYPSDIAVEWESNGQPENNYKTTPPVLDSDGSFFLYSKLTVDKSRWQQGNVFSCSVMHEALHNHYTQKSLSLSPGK

At P-selectin, `CCCCCCCCCCCCC/C=C/[C@@H](O)[C@H](CO[C@@H]1O[C@H](COS(=O)(=O)O)[C@H](OS(=O)(=O)O)[C@H](O)[C@H]1O)NC(=O)CCCCCCCCCCCCCCC` [Example 2, (2S,3R,4E)-3-Hydroxy-2-hexadecanoylamino-1-[4,6-di-O-(sodiumoxysulfonyl)-β-D-galactopyranosyloxy]-4-octadecene] returned an IC50 of 39 µM. In test [1], the “RPA MPO % Inhib.” value stood at 33.5%.

`CCCCCCCC/C=C\CCCCCCCCCCCCCC(=O)N[C@@H](CO[C@@H]1O[C@H](COS(=O)(=O)O)[C@H](OC(=O)c2ccccc2)[C@H](OC(=O)c2ccccc2)[C@H]1OS(=O)(=O)O)[C@@H](/C=C/CCCCCCCCCCCCC)OC(=O)c1ccccc1` [Example 7, (2S,3R,4E)-3-Benzoyloxy-1-[3,4-di-O-benzoyl-2,6-di-O-(sodiumoxysulfonyl)-β-D-galactopyranosyloxy]-2-(cis-15-tetracosenoylamino)-4-octadecene] returned an IC50 on P-selectin of 11 µM. Also, the “RPA MPO % Inhib.” value in test [1] stood at 46%.
